From ChEMBL document CHEMBL1141069, “Impact of induced fit on ligand binding to the androgen receptor: a multidimensional QSAR study to predict endocrine-disrupting effects of environmental chemicals” (J Med Chem, 2005)

Each compound was assayed against T1, Androgen receptor (Rattus norvegicus, UniProt P15207).
T1 sequence (P15207 whole entry): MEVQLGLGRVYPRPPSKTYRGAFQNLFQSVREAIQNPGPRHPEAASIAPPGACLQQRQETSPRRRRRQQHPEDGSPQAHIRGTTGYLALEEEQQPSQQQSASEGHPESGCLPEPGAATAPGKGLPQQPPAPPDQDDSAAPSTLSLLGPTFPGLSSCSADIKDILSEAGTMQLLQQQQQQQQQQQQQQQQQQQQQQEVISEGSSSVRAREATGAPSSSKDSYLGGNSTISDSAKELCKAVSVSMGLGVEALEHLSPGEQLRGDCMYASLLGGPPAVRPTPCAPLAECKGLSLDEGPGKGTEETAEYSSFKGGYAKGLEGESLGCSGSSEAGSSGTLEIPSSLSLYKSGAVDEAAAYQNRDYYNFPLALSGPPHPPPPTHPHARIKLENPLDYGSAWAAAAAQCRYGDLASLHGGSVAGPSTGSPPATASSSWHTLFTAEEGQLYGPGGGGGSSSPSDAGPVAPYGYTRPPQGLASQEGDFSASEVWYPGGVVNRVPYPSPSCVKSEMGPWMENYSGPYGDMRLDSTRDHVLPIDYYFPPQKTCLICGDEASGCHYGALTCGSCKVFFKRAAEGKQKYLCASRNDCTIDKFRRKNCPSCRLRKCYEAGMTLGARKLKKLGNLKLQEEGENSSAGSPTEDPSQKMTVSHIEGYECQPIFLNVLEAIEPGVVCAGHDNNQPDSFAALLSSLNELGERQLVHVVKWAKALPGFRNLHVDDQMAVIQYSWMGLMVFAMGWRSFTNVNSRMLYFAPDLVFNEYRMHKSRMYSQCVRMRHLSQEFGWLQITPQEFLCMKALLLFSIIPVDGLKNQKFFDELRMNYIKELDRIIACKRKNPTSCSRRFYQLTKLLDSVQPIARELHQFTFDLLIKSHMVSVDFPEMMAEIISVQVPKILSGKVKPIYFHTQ
Clc1ccc(-c2ccc(Cl)cc2Cl)c(Cl)c1 was tested, and the IC50 was 17 µM.
For C[C@]12CC[C@@H]3c4ccc(O)c(O)c4CC[C@H]3[C@@H]1CC[C@@H]2O, the IC50 was 2.57 µM.
Compound CCC(c1ccc(O)c(O)c1)C(CC)c1ccc(O)c(O)c1 (stereo unspecified) has an IC50 of 37.2 µM.
With Cc1ccc2c(c1)CC[C@@H]1[C@@H]2CC[C@]2(C)[C@@H](O)[C@@](C)(O)C[C@@H]12 the IC50 was 37.2 µM.
Cc1ccc2c(c1)CC[C@@H]1[C@@H]2CC[C@]2(C)[C@@H](O)[C@H](O)C[C@@H]12 was tested, and the IC50 was 53.7 µM.
For c1ccc([C@H]2COC[C@H]2c2ccccc2)cc1, the IC50 was 28.8 µM.
CCCCCCCOc1ccc(O)cc1 gave an IC50 of 14.8 µM.
With CCCCCCCCCc1ccc(OCCOCCO)cc1 the IC50 was 18.2 µM.
For O=C(c1ccccc1)c1ccc(O)cc1, the IC50 was 182 µM.
C[C@]12CC[C@@H](O)C[C@@H]1CC[C@@H]1[C@@H]2CC[C@]2(C)C(O)CC[C@@H]12 (stereo partly specified) showed an IC50 of 2 µM.
For C[C@]12CC[C@@H]3c4ccccc4CC[C@H]3[C@@H]1CC[C@@H]2O, the IC50 was 0.0891 µM.
O=C(c1ccc(O)cc1)c1ccc(O)cc1 was tested, and the IC50 was 145 µM.
COc1ccc(C(=C(Cl)Cl)c2ccc(OC)cc2)cc1 was tested, and the IC50 was 49 µM.
Work on COc1ccc(C(=C(Cl)Cl)c2ccc(O)cc2)cc1 yielded an IC50 of 20.4 µM.
O=C1CC(c2ccccc2)Oc2ccc(O)cc21 (stereo unspecified) gave an IC50 of 18.6 µM.
Clc1ccc(-c2ccccc2Cl)cc1 gave an IC50 of 16.2 µM.
Cl/C=C(\c1ccc(Cl)cc1)c1ccccc1Cl showed an IC50 of 10.5 µM.
Compound CCC(c1ccc(O)cc1)C(CC)c1ccc(OC)cc1 (stereo unspecified) has an IC50 of 12.9 µM.
Work on CC/C(=C(\c1ccc(O)cc1)c1ccc(OCCN(C)C)cc1)c1ccccc1 yielded an IC50 of 9.33 µM.
In the case of C[C@@]12CCC[C@H]1[C@@H]1CCc3cc(O)ccc3[C@H]1CC2, the IC50 is reported as 41.7 µM.
O=C1C[C@@H]2C(=O)CC[C@H]2[C@@H]2CC[C@H]3CCCC[C@@H]3[C@@H]12 was tested, and the IC50 was 0.0891 µM.
Work on Oc1ccc(-c2cc(Cl)c(Cl)c(Cl)c2Cl)cc1 yielded an IC50 of 16.2 µM.
For C[C@]12CCCC[C@@H]1CC[C@@H]1[C@@H]2CC[C@]2(C)[C@@H](O)CC[C@@H]12, the IC50 was 0.011 µM.
C[C@]12CC[C@@H]3c4cc(O)c(O)cc4CC[C@H]3[C@@H]1CC[C@@H]2O was tested, and the IC50 was 8.51 µM.
Work on Oc1c(Cl)cc(-c2cc(Cl)c(O)c(Cl)c2)cc1Cl yielded an IC50 of 38 µM.
Compound CC1CC2=CC(=O)CC[C@@H]2[C@H]2CC[C@@]3(C)[C@@H](CC[C@]3(C)O)[C@H]12 (single isomer, unassigned) [MIBOLERONE] has an IC50 of 0.00166 µM.
In the case of C[C@H]1CCCC(=O)CCCCCc2cc(O)cc(O)c2C(=O)O1 (stereo in doubt; form 1) [ZEARALANONE], the IC50 is reported as 42.7 µM.
C[C@H]1CCCC(=O)CCCCCc2cc(O)cc(O)c2C(=O)O1 (stereo in doubt; form 2) [ZEARALANONE] showed an IC50 of 10 µM.
O=C(O)COc1cc(Cl)c(Cl)cc1Cl [2,4,5-TRICHLOROPHENOXYACETIC ACID] was tested, and the IC50 was 457 µM.
O=C1CC(c2ccc(O)cc2)Oc2ccccc21 (stereo unspecified) [4'-HYDROXY-FLAVANONE] gave an IC50 of 57.5 µM.
O=C(/C=C/c1ccccc1)c1ccc(O)cc1 [4'-HYDROXYCHALCONE] gave an IC50 of 57.5 µM.
Work on O=C(/C=C/c1ccc(O)cc1)c1ccccc1 [4-HYDROXYCHALCONE] yielded an IC50 of 47.9 µM.
O=c1cc(-c2ccccc2)oc2ccc(O)cc12 [6-HYDROXYFLAVONE] was tested, and the IC50 was 182 µM.
With O=c1cc(-c2ccccc2)oc2cc(O)ccc12 [7-HYDROXYFLAVONE] the IC50 was greater than 42.7 µM.
In the case of Oc1ccc(/C=C/c2ccccc2)cc1 [(E)-4-STYRYLPHENOL], the IC50 is reported as 41.7 µM.
In the case of C[C@]12CCC(=O)C=C1CC[C@@H]1[C@@H]2[C@@H](O)C[C@]2(C=O)[C@@H](C(=O)CO)CC[C@@H]12 [ALDOSTERONE], the IC50 is reported as greater than 42.7 µM.
Oc1ccc([C@H]2COc3cc(O)ccc3C2)cc1 [AUS-131] gave an IC50 of 74.1 µM.
Work on O=C(c1ccccc1)c1ccccc1 [BENZOPHENONE] yielded an IC50 of 129 µM.
In the case of CC(C)(c1ccc(O)cc1)c1ccc(O)cc1 [BISPHENOL A], the IC50 is reported as 74.1 µM.
Compound O=C(/C=C/c1ccccc1)c1ccccc1 [CHALCONE] has an IC50 of 64.6 µM.
ClC1=C(Cl)C2(Cl)C3C(Cl)C(Cl)CC3C1(Cl)C2(Cl)Cl (stereo unspecified) [CHLORDANE] showed an IC50 of 10 µM.
CCN(CC)CCOc1ccc(/C(=C(\Cl)c2ccccc2)c2ccccc2)cc1 [CLOMIPHENE] was tested, and the IC50 was 13.5 µM.
Compound C[C@]12CC[C@H]3[C@@H](CCC4(OC(=O)c5ccccc5)CC(=O)CC[C@]34C)[C@@H]1CC[C@@H]2O (stereo partly specified) [DHT BENZOATE] has an IC50 of 0.257 µM.
COc1cc(C(=C(Cl)Cl)c2ccc(O)cc2)ccc1O [DIHYDROXYMETHOXYCHLOROLEFIN] gave an IC50 of 6.31 µM.
C/C(=C(/C)c1ccc(O)cc1)c1ccc(O)cc1 [DIMETHYLSTILBESTROL] was tested, and the IC50 was 14.1 µM.
For O=S1OCC2C(CO1)C1(Cl)C(Cl)=C(Cl)C2(Cl)C1(Cl)Cl (stereo unspecified) [ENDOSULFAN], the IC50 was 23.4 µM.
For O=C1CC(c2ccccc2)Oc2ccccc21 (stereo unspecified) [FLAVANONE], the IC50 was 55 µM.
With O=c1cc(-c2ccccc2)oc2ccccc12 [FLAVONE] the IC50 was 77.6 µM.
For O=c1c(-c2ccc(O)cc2)coc2cc(O)cc(O)c12 [GENISTEIN], the IC50 was 85.1 µM.
In the case of C[C@]12CCC(=O)C=C1CC[C@@H]1[C@@H]2[C@@H](O)C[C@@]2(C)[C@H]1CC[C@]2(O)C(=O)CO [HYDROCORTISONE], the IC50 is reported as 182 µM.
For Oc1ccc(OCc2ccccc2)cc1 [MONOBENZONE], the IC50 was 234 µM.
COc1ccc2c(c1)CCC(c1ccccc1)=C2c1ccc(OCCN2CCCC2)cc1 [NAFOXIDINE] showed an IC50 of 12.9 µM.
Compound ClC(Cl)=C(c1ccc(Cl)cc1)c1ccccc1Cl [O,P'-DDE (1,1-(O,P'-DICHLORODIPHENYL)-2,2 DICHLOROETHENE)] has an IC50 of 20.4 µM.
With Oc1ccc(/C=C/c2ccc(O)cc2)cc1 [TRANS-4,4'-DIHYDROXYSTILBENE] the IC50 was 83.2 µM.
Work on C[C@]12C=CC3=C4CCC(=O)C=C4CCC3C1CC[C@@H]2O (stereo partly specified) [TRENBOLONE] yielded an IC50 of 0.00263 µM.
For COc1cc(C=O)ccc1O [VANILLIN], the IC50 was greater than 427 µM.
